In article PMC11374673, “Discovery of isoquinoline sulfonamides as allosteric gyrase inhibitors with activity against fluoroquinolone-resistant bacteria” (Nature Chemistry, 2024):
Converted amounts (≈) assume the structure as drawn. “And” between values parts separate entries of the source, which are not always exact repeats. Identical values can stand only once. Like-named read-outs stand apart in the source and are kept apart here.

Columns and labels:
E. coli W3110 = experiment: MIC by broth microdilution; type: cell-based, Escherichia coli; details: for MIC: broth microdilution, read-out: MIC E. coli W3110; for antimicrobial activity: relative to parent compound
Procedure, shortened: (§1)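 Broth microdilution in CAMHB: twofold compound series inoculated with 100-fold-diluted bacteria from exponential growth (OD600 0.5, 37 °C); kanamycin 50 µg ml^−1 added for Keio collection strains. Overnight incubation, 37 °C, 600 r.p.m. shaking.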

HEK293T = experiment: Cytotoxicity assay (MTT); type: cell-based, human; details: for MTT data (raw readout): HEK293T; for IC50: 24 h, MTT
Protocol: (§2) HepG2 (ATCC HB-8065) and HEK293T (ATCC CRL-3216) cell lines were cultured at 37 °C and 7% CO2 in Dulbecco’s modified Eagle medium (Sigma-Aldrich, D6546) with GlutaMax, penicillin (100 µg ml^−1), streptomycin (100 µg ml^−1) and 10% fetal calf serum. Cells were passaged twice a week by first detaching using 0.05% trypsin in phosphate-buffered saline (PBS) and then diluting to appropriate confluence. Compound cytotoxicity was evaluated using the standard (3-(4,5-dimethylthiazol-2-yl)-2,5-diphenyltetrazolium bromide (MTT) assay protocol (MTT assay protocol for cell viability and proliferation, Merck) with slight changes. HepG2 and HEK293T cells were seeded at a density of 1.5 × 10^4 cells per well in a clear 96-well tissue culture treated plate in a final volume of 100 µl in Dulbecco’s modified Eagle medium, supplemented with fetal bovine serum (1%), GlutaMax and penicillin/streptomycin. Cells were incubated for 24 h at 37 °C, 7% CO2 to allow cells to attach to the plates. […] Incubation was done for 24 h at 37 °C, 7% CO2. After the incubation, MTT was added to each well at a final concentration of 0.40 mg ml^−1. The plates were then incubated for 2 h at 37 °C, 7% CO2. Medium was carefully removed via suction, and purple formazan crystals were resuspended in 100 µl DMSO. Absorbance was read at 570 nm using a Clariostar plate reader with MARS (V4.20). The data were then analysed with GraphPad Prism software. IC50 values were calculated using non-linear fitted curve with variable slope settings, with values adjusted for background (plotted absorbance (ABS)sample = (ABSsample – ABSbackground) / (ABSvehicle – ABSbackground)). Technical triplicates for each condition were used, along with biological duplicates.

HepG2 = experiment: Cytotoxicity assay (MTT); type: cell-based, human; details: for IC50: Homo sapiens, HepG2, 24 h, MTT, 24 h
Protocol: as §2

K. pneumoniae ATCC 29665 = experiment: MIC by broth microdilution; type: cell-based, Klebsiella pneumoniae; details: Klebsiella pneumoniae, ATCC29665, broth microdilution; read-out: MIC K. pneumoniae ATCC 29665
Procedure, shortened: as §1

[1] = 0.023 uM, experiment n = 1, technical triplicates
[2] = 0.023 uM, experiment n = 2, technical triplicates
[3] = 0.068 uM, experiment n = 1, technical triplicates
[4] = 0.068 uM, experiment n = 2, technical triplicates
[5] = 0.21 uM, experiment n = 1, technical triplicates
[6] = 0.21 uM, experiment n = 2, technical triplicates
[7] = 0.62 uM, experiment n = 1, technical triplicates
[8] = 0.62 uM, experiment n = 2, technical triplicates
[9] = 1.85 uM, experiment n = 1, technical triplicates
[10] = 1.85 uM, experiment n = 2, technical triplicates
[11] = 5.6 uM, experiment n = 1, technical triplicates
[12] = 5.6 uM, experiment n = 2, technical triplicates
[13] = 16.7 uM, experiment n = 1, technical triplicates
[14] = 50 uM, experiment n = 1, technical triplicates
[15] = 50 uM, experiment n = 2, technical triplicates
[16] = HepG2, 0.023 uM, experiment n = 1, technical triplicates
[17] = HepG2, 0.023 uM, experiment n = 2, technical triplicates
[18] = HepG2, 0.068 uM, experiment n = 1, technical triplicates
[19] = HepG2, 0.068 uM, experiment n = 2, technical triplicates
[20] = HepG2, 0.21 uM, experiment n = 1, technical triplicates
[21] = HepG2, 0.21 uM, experiment n = 2, technical triplicates
[22] = HepG2, 0.62 uM, experiment n = 1, technical triplicates
[23] = HepG2, 0.62 uM, experiment n = 2, technical triplicates
[24] = HepG2, 1.85 uM, experiment n = 1, technical triplicates
[25] = HepG2, 1.85 uM, experiment n = 2, technical triplicates

O=S(=O)(NCCNCc1ccc(-c2ccsc2)cc1)c1cccc2cnccc12 [Compound 57]
MIC (E. coli W3110; Escherichia coli, W3110, WT): 6.25 µM (≈ 2.65 µg/mL)
antimicrobial activity (E. coli W3110): equally potent
MTT data (raw readout) (HEK293T; [1]): 0.793 and 0.726 and 0.620
MTT data (raw readout) (HEK293T; [2]): 0.807 and 0.803 and 0.611
MTT data (raw readout) (HEK293T; [3]): 0.732 and 0.738 and 0.650
MTT data (raw readout) (HEK293T; [4]): 0.765 and 0.761 and 0.569
MTT data (raw readout) (HEK293T; [5]): 0.722 and 0.771 and 0.628
MTT data (raw readout) (HEK293T; [6]): 0.825 and 0.737 and 0.605
MTT data (raw readout) (HEK293T; [7]): 0.689 and 0.691 and 0.563
MTT data (raw readout) (HEK293T; [8]): 0.748 and 0.715 and 0.545
MTT data (raw readout) (HEK293T; [9]): 0.625 and 0.610 and 0.502
MTT data (raw readout) (HEK293T; [10]): 0.678 and 0.632 and 0.506
MTT data (raw readout) (HEK293T; [11]): 0.490 and 0.501 and 0.402
MTT data (raw readout) (HEK293T; [12]): 0.448 and 0.475 and 0.377
MTT data (raw readout) (HEK293T; [13]): 0.253 and 0.231 and 0.202
MTT data (raw readout) (HEK293T; 16.7 uM, experiment n = 2, technical triplicates): 0.296 and 0.267 and 0.213
MTT data (raw readout) (HEK293T; [14]): 0.051 and 0.066 and 0.048
MTT data (raw readout) (HEK293T; [15]): 0.078 and 0.094 and 0.056
IC50 (HEK293T; Homo sapiens, HEK-293T): 6.6 µM
MTT data (raw readout) (HepG2; [16]): 0.512 and 0.502 and 0.507
MTT data (raw readout) (HepG2; [17]): 0.479 and 0.518 and 0.476
MTT data (raw readout) (HepG2; [18]): 0.477 and 0.445 and 0.510
MTT data (raw readout) (HepG2; [19]): 0.538 and 0.507 and 0.588
MTT data (raw readout) (HepG2; [20]): 0.485 and 0.473 and 0.497
MTT data (raw readout) (HepG2; [21]): 0.529 and 0.523 and 0.494
MTT data (raw readout) (HepG2; [22]): 0.426 and 0.445 and 0.470
MTT data (raw readout) (HepG2; [23]): 0.529 and 0.507 and 0.472
MTT data (raw readout) (HepG2; [24]): 0.360 and 0.379 and 0.361
MTT data (raw readout) (HepG2; [25]): 0.404 and 0.395 and 0.409
MTT data (raw readout) (HepG2; HepG2, 5.6 uM, experiment n = 1, technical triplicates): 0.268 and 0.278 and 0.299
MTT data (raw readout) (HepG2; HepG2, 5.6 uM, experiment n = 2, technical triplicates): 0.322 and 0.303 and 0.267
MTT data (raw readout) (HepG2; HepG2, 16.7 uM, experiment n = 1, technical triplicates): 0.206 and 0.230 and 0.232
MTT data (raw readout) (HepG2; HepG2, 16.7 uM, experiment n = 2, technical triplicates): 0.246 and 0.259
MTT data (raw readout) (HepG2; HepG2, 50 uM, experiment n = 2, technical triplicates): 0.039 and 0.047 and 0.038
IC50 (HepG2): 8.2 µM
MIC (K. pneumoniae ATCC 29665): 12.5 µM (≈ 5.29 µg/mL)

O=S(=O)(NCCNCc1ccc(-c2ccc(F)cc2)cc1)c1cccc2cnccc12 [Compound 59]
MIC (E. coli W3110; Escherichia coli, W3110, WT): 3.1 µM (≈ 1.35 µg/mL)
MIC (E. coli W3110; WT): 3.125 µM (≈ 1.36 µg/mL)
antimicrobial activity (E. coli W3110): twofold increase in potency
MTT data (raw readout) (HEK293T; [1]): 1.333 and 1.279 and 1.355
MTT data (raw readout) (HEK293T; [2]): 1.390 and 1.481 and 1.407
MTT data (raw readout) (HEK293T; [3]): 1.383 and 1.359
MTT data (raw readout) (HEK293T; [4]): 1.383 and 1.292 and 1.538
MTT data (raw readout) (HEK293T; [5]): 1.318 and 1.351 and 1.256
MTT data (raw readout) (HEK293T; [6]): 1.291 and 1.248 and 1.339
MTT data (raw readout) (HEK293T; [7]): 1.028 and 1.043 and 1.203
MTT data (raw readout) (HEK293T; [8]): 1.142 and 1.303 and 1.183
MTT data (raw readout) (HEK293T; [9]): 0.845 and 0.882 and 0.691
MTT data (raw readout) (HEK293T; [10]): 0.871 and 0.885 and 0.773
MTT data (raw readout) (HEK293T; [11]): 0.197 and 0.226 and 0.189
MTT data (raw readout) (HEK293T; [12]): 0.227 and 0.205 and 0.278
MTT data (raw readout) (HEK293T; [13]): 0.068 and 0.048 and 0.059
MTT data (raw readout) (HEK293T; [14]): 0.036 and 0.035 and 0.032
MTT data (raw readout) (HEK293T; [15]): 0.032 and 0.034 and 0.028
IC50 (HEK293T; Homo sapiens, HEK-293T): 1.7 µM
IC50 (HEK293T): 2.6 µM
MTT data (raw readout) (HepG2; [16]): 1.000 and 0.992 and 0.989
MTT data (raw readout) (HepG2; [17]): 0.854 and 0.789 and 0.774
MTT data (raw readout) (HepG2; [18]): 0.940 and 0.990 and 0.945
MTT data (raw readout) (HepG2; [19]): 0.876 and 0.808 and 0.777
MTT data (raw readout) (HepG2; [20]): 0.977 and 1.029 and 0.973
MTT data (raw readout) (HepG2; [21]): 0.822 and 0.816 and 0.771
MTT data (raw readout) (HepG2; [22]): 0.952 and 1.030 and 0.967
MTT data (raw readout) (HepG2; [23]): 0.836 and 0.820 and 0.813
MTT data (raw readout) (HepG2; [24]): 0.913 and 0.914 and 0.948
MTT data (raw readout) (HepG2; [25]): 0.795 and 0.749 and 0.743
IC50 (HepG2): 1.7 µM
MIC (K. pneumoniae ATCC 29665): 6.25 µM (≈ 2.72 µg/mL)
